Results reported in paper PMC10103840 (Frontiers in Pharmacology, 2023).
Several values for one entry are separate records, joined by “and”; a condition that tells them apart may be missing. Identical values can stand only once.

Key:
[1] = in vitro; conditions: human, pH 7.2
[2] = test system: human placental barrier
[3] = test system: BeWo b30 cells; experiment: in vitro; conditions: human, 60 min, 5 μM
Experimental: (§1) BeWo b30 choriocarcinoma cells were obtained from Dr. Tina Buerki-Thurnherr (Empa, St. Gallen, Switzerland), with permission from Dr. Alan L. Schwartz (Washington University School of Medicine, St. Louis MO, USA), and were cultivated in F-12 K Nut Mix supplemented with 10% heat inactivated FBS, antibiotics (100 U/mL penicillin, 100 µg/mL […]), and 2 mM L-glutamine (all from Gibco). The cells were cultivated in a humidified incubator at 37°C and 5% CO2 atmosphere.
(§2) BeWo b30 cells were cultured on Transwell® polycarbonate membrane inserts (24-well format; 0.4 μm pore size, 0.33 cm^2 cell growth area, 200 μL apical volume, 1′000 μL basolateral volume; Corning, Sigma-Aldrich) at a density of 60′000 cells/well. These inserts were then cultivated in a cellZscope (nanoAnalytics) at 37°C/5% CO2. Cell culture medium was replaced every 2 days up to 11 days to find the best possible conditions.
(§3) BeWo b30 cells were cultured in transparent 24-well plates under the same conditions as mentioned above and transferred to the cellZscope® at day 8 to record TER and Ccl values. After 24 h (day 9) and when a TER of 30–60 Ωcm^2 was reached and Ccl was between 0.5 and 5.0 μF/cm^2, the permeability assay was initiated by adding valerenic acid (5 μM; in HBSS with 4% BSA) to the apical compartment, while the basolateral compartment contained 1′000 μL of HBSS only. […] Samples (150 μL apical, 800 μL basolateral) were collected at each time point (0, 15, 30, 60 min; one insert per time point). After 60 min, a part of the inserts was transferred back to the cellZscope® to monitor TER and Ccl values during another 24 h. The cells grown on the other part of the inserts were quickly washed with 200 μL of cold HBSS and then lysed with 700 μL acetonitrile (100 μL apical, 600 μL basolateral) for 40 min on an orbital shaker (450 rpm, room temperature) to determine the test substance cell contents.
(§4) Apparent permeability coefficients (Papp) were calculated according to the following Eq. 1: Papp cm/s=∆Q/∆t/ACA0 (1) where ΔQ/Δt is the rate of amount transported to the receiver compartment, A is the membrane surface area (0.33 cm^2), and C A0 is the initial concentration in the apical compartment.
(§5) The clearance values were calculated according to the following Eq. 2 ([Neuhaus et al., 2008]): Clearance μL=CBnVB/CA−VB/VA∙∑CBn−1 (2) where C Bn and V B are the concentration and volume in the basolateral compartment at a specific timepoint (n), respectively; C A and VA are the concentration and volume in the apical compartment, respectively, and C Bn-1 is the total amount of substance found in the basolateral compartment up to the previous timepoint (n-1).
(§6) Recovery (mass balance) of each compound was calculated according to the following Eq. 3: Recovery %=CAfVA+CBfVB+CCfVC/CA0VA∙100 (3) where C Af , C Bf and C Cf are the final compound concentrations in apical, basolateral, and cellular compartments, respectively; C A0 is the initial concentration in the apical compartment, and V A , V B and V C are the volumes in the respective compartments.
(§7) For valerenic acid, 150 µL of the IS in MeOH were added to 50 µL of sample, and the mixture centrifuged for 20 min at 13′200 rpm/16′100 rcf at 10°C (Centrifuge 5415R, Eppendorf). An aliquot (50 µL) of the supernatant was collected and transferred into HPLC vials. Vials were centrifuged for additional 20 min prior to U(H)PLC-MS/MS analysis in full loop mode (2 µL).

[4] = in vitro; conditions: human
Experimental: as §1, §2, §3, §4, §5, §6, §7

[5] = System adherence test (empty perfusion chamber, maternal circuit only); assay type: in vitro ADME; conditions: % of initial concentration, 5 μM in PM, no placental tissue, 240 min, n = 3
Experimental: The dissolution and adherence of the compounds to the perfusion equipment and to the tubing system was assessed before starting perfusions with human placentae. […] The compounds were directly dissolved in PM at a final concentration of 5 μM (100 mL reservoir) and individually tested in three independent experiments (n = 3).

[6] = 60 min, 5 μM
[7] = test system: placental tissue
Experimental: The stability of volumes in each reservoir ensured the integrity of the circuits and served for the detection of fetal-maternal (FM) leaks (≤4 mL/h). Throughout the perfusion additional quality control measures included a physiological pH-range (7.2 ± 0.1) and a controlled fetal perfusion pressure (≤ 70 mmHg). Samples were taken at defined timepoints over a 240 min period, immediately centrifuged, and stored in glass micro-inserts (VWR) at −80°C for bioanalytical analysis. A blood gas analysis (pH, pO2, pCO2, glucose, lactate; ABL800 FLEX) of fetal and maternal samples was performed to ensure viability and metabolic activity of placental tissue during perfusion. The production of the placental hormones beta-human chorionic gonadotropin (β-hCG) and leptin was monitored by standard ELISA to assess tissue functionality ex vivo [see ([Spiess et al., 2022a]) and references therein]. For β-hCG, flat-bottom microplates were coated with rabbit polyclonal anti-hCG antibody (Agilent Dako) at a 1:1′000 dilution and the mouse monoclonal anti-hCG (abcam; 1:5′000) served as secondary antibody. The peptide hormone hCG (Lucerna-Chem) was used as reference standard; standard final concentrations of between 100 mU/mL and 2.5 mU/mL were prepared by serial dilution in seven steps and used in each plate. The goat anti-mouse-IgG-horseradish peroxidase conjugate (abcam) antibody was used at a 1:5′000 dilution. The substrate consisted of O-phenylenediamine dihydrochloride. […] For leptin, microtiter plates were coated with mouse monoclonal anti-human leptin/OB (R&D Systems; 1:250). The second antibody was biotinylated monoclonal mouse anti-human leptin/OB (R&D Systems), used at a dilution of 1:1′000. The standard was recombinant human leptin (R&D Systems); standard final concentrations of between 2′000 pg/mL and 15.6 pg/mL were prepared by serial 1:2 dilution in seven steps and used in each plate. […] The conjugate streptavidin-horseradish peroxidase (Southern Biotechnology Associates, 1:4′000) was added and the plate incubated for 60 min. For the development, ready-to-use tetramethylbenzidine substrate solution (Thermo Fischer) was used.
Concentrations in the placental perfusion profiles (Figure 2) and system adherence tests (Figure 4) were expressed as a percentage (%) of the maternal concentration at the beginning of the perfusion, whereby the maternal concentration, measured in the maternal reservoir, was adjusted to the total volume of the full maternal circuit (maternal reservoir and dead volume of the system). The FM concentration ratio (FM ratio; Figure 3) was calculated for each timepoint and plotted against the perfusion time (min). The final recovery (%) is the sum of the amounts of study compound present in both perfusates at the end of a perfusion, and the sample removed during the experiment. Glucose consumption and lactate production are presented as the sum of changes (from the beginning to the end of perfusion) in total content (μmol) in both circuits, normalized by total perfusion time (min) and weight (g) of perfused cotyledon. […]
Multiple group comparisons were performed for the glucose consumption, lactate production, β-hCG and leptin production using the non-parametric Mann–Whitney U with GraphPad Prism (version 9.3.1 for macOS; GraphPad Software). […] Data are expressed as mean ± SD of three to four independent experiments.

[8] = test system: placental tissue; experiment: Histopathological evaluation of perfused placentae; set-up: species or system human
Experimental: Immediately after perfusion the placentae were fixed in 4% paraformaldehyde for at least 24 h. Tissue samples from representative placental tissue sections, each from perfused, non-perfused, and transitional area were prepared to perform a pathological examination. For this purpose, the tissue was embedded in paraffin, cut (∅ 2-3 µm), and stained (standard hematoxylin-eosin stain, Braun-Brenn modified Gram stain) according to the standards of routine histopathological diagnosis of the Department of Pathology and Molecular Pathology (University Hospital of Zurich). […] The blood void and width of the intervillous space and fetal blood vessels in the chorionic villi provided information about the quality of perfusion, and particular attention was paid to the presence of intravascular thrombi. General signs of degeneration, such as vacuolization of the cytotrophoblast, villous vascular endothelium viability, and formation of hydropic villous changes compared with non-perfused tissue indicated whether tissue damage might have occurred during perfusion. Microscopic effects and placental tissue damage in the perfused area were expressed in relative amounts (%) to the non-perfused tissue.

[9] = test system: BeWo cells; conditions: ref Spiess et al., 2022b; cited from earlier work
[10] = Stability assay in PBS, perfusion medium and placental homogenates; assay type: in vitro ADME, human
Experimental: In short, after spiking the various matrices with the study compounds, samples were either processed immediately for U(H)PLC-MS/MS analysis (C0), or kept at 4°C/37°C on an orbital shaker (600 rpm) for 360 min before processing for U(H)PLC-MS/MS analysis. Samples were processed via solid phase extraction or protein precipitation prior to analysis.

[11] = Transwell control experiments across cell-free inserts; conditions: data not shown
[12] = human volunteers, ref Jackson et al., 2014; cited from earlier work
[13] = non-perfused area of same placenta

## Cc1cc(=O)n(-c2ccccc2)n1C [Antipyrine, antipyrine, reference compound]
[1]
  recovery at 240 min, 5 μM: 79.2%
[2]; human, 5 μM, pH 7.2
  Sampling (% found): 21.8 ± 1.3%
  Time to equilibrium between fetal and maternal compartment: 120 min
  Time to equilibrium between fetal and maternal concentrations (FM ratio): 90 min
[2]; human, 90 min, 5 μM, pH 7.2
  FM ratio at 90 min: 1.03
[2]; human, 120 min, 5 μM, pH 7.2
  FM ratio at 120 min: 0.98
[2]; human, 180 min, 5 μM, pH 7.2
  FM ratio at 180 min: 1.05
[2]; human, 240 min, 5 μM, pH 7.2
  FM ratio at 240 min: 0.92
[3]
  Clearance across BeWo b30 cell layer: 35.5 µL
[4]
  Papp at 60 min, 5 μM: 28 ×10⁻⁶ cm/s
  recovery at 60 min, 5 μM: 81.9%
[5]
  Compound lost / adhering to the perfusion equipment: −2.2% and −2.2% ± 7.0%
[6]
  Clearance across cell-free insert: 33.5 µL
[7]
  Lactate production: 0.27 µmol/g/min
  Leptin production: 2.26 ng/min
  Total glucose consumption: 0.39 µmol/g/min
  β-hCG production: 1.44 U/min

## Cc1cc(O)c2c(=O)c3c(O)cc(O)c4c5c(O)cc(O)c6c(=O)c7c(O)cc(C)c8c1c2c(c34)c(c78)c65 [Hypericin, hypericin]
[8]
  Global placental pathology: Else: CCB and N
[8]; after perfusion
  Extravasations into villous stroma (in words): no extravasations into villous stroma
  Ruptures of villous vessels (in words): no ruptures of villous vessels
[8]; [13]
  Hydropic changes in non-perfused: 5% and 0%
  Intervillous spaces without blood in non-perfused: 40% and 80%
  Vacuolated trophoblast in villi: in non-perfused too?: 0%
[8]; perfused and non-perfused
  Thrombi in vessels of stem villi (in words): no thrombi detectable
[8]; perfused area
  Intervillous spaces without blood: 90% and 95%
[8]; perfused area, individual experiments
  Emptiness of villous vessels: 90% and 80% and 85%
[9]
  Concentration lowering the viability of placental cells: 1000 nM
  Concentration with genotoxic effects: 10000 nM
  Concentration with increased apoptosis / apoptotic effects: 1000 nM
[1]
  recovery at 240 min, 5 μM: 54%
[2]; 240 min perfusion, 5 μM maternal
  Transplacental transfer (in words): did not cross the human placental barrier
[2]; human, 240 min, 5 μM, pH 7.2
  Concentration in the maternal compartment: approximately 46 % of initial concentration
[2]; maternal perfusate after 240 min, % of amount in maternal sample at beginning
  M perfusate (% found): 36.7%
[10]; 360 min, 4°C and 37°C
  Stability in PBS compared to PM (in words): less stable
[10]; human, tissue homogenate, 6 h
  Remaining in placental homogenate, Donor 1: 101.0%
  Remaining in placental homogenate, Donor 2: 82.7%
  Remaining in placental homogenate, Donor 3: 93.7%
[11]
  Passage across cell-free inserts (in words): did not cross the cell-free inserts to a sufficient extent
[5]
  Compound lost / adhering to the perfusion equipment: 3.8% and 3.8% ± 13.1%
[12]
  Plasma concentration: 2.2 ng/mL and 4.36 nM
[7]; 5 μM, 240 min perfusion, vs antipyrine control perfusions
  Effect on β-hCG and leptin production (in words): neither hyperforin, hypericin, nor valerenic acid inhibited their production in a statistically significant manner
